Source: patent publication US5220018A, “Cholecystokinin antagonists” (Merck & Co., Inc., priority 1992, dated 1993)
Where two headings read alike, the source gives them in different places.

Key:
CCK Receptor (Pancreas) = biological target: T1, CCK Receptor (Pancreas) (Rattus norvegicus, UniProt P30551); test: biochemical; type: binding, Male Sprague-Dawley rats
T1 construct: The whole pancreas was dissected free of fat tissue and was homogenized; from tissue; host or cells: rat whole pancreas, homogenate membranes
T1 sequence (P30551 1-444): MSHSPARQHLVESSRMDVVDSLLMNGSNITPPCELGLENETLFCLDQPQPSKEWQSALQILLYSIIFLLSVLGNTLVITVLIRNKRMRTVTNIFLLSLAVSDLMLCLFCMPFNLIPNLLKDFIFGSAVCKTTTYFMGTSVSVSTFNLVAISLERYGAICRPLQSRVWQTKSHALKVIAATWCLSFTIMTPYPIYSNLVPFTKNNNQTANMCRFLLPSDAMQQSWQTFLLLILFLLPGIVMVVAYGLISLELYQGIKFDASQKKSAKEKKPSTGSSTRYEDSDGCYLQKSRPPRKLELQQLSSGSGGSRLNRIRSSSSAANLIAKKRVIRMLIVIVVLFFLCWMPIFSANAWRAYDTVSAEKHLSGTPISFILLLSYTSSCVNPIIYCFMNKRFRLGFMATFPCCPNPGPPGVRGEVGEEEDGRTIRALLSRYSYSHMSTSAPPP
Method: 1. CCK Receptor Binding (Pancreas)
CCK-8 sulphated was radiolabelled with ^125 I-Bolton Hunter reagent (2000 Ci/mmole). Receptor binding was performed according to Chang and Lotti (Proc. Natl. Acad. Sci. 83, 4923-4926, 1986) with minor modifications.
Male Sprague-Dawley rats (150-200 g) were sacrificed by decapitation. The whole pancreas was dissected free of fat tissue and was homogenized in 25 volumes of ice-cold 10 mM Hepes buffer with 0.1% soya bean trypsin inhibitor (pH 7.4 at 25° C.) with a Kinematica Polytron. The homogenates were centrifuged at 47,800 g for 10 min. Pellets were resuspended in 10 volumes of binding assay buffer (20 mM Hepes, 1 mM EGTA, 5 mM MgCl2, 150 mM NaCl, bacitracin 0.25 mg/ml, soya bean trypsin inhibitor 0.1 mg/ml, and bovine serum albumin 2 mg/ml, pH 6.5 at 25° C.) using a teflon homogenizer, 15 strokes at 500 rpm. The homogenate was further diluted in binding assay buffer to give a final concentration of 0.5 mg original wet weight/1 ml buffer. […] All assays were run in duplicate. The reaction mixtures were incubated at 25° C. for 2 hours and the reaction terminated by rapid filtration (Brandell 24 well cell harvester) over Whatman GF/C filters, washing 3×4 mls with ice-cold 100 mM NaCl. The radioactivity on the filters was counted with a LKB gamma counter.
(§1) Drug displacement studies were performed with at least 10 concentrations of compounds of formula 1 and the IC50 values were determined by regression analysis.

CCK Receptor (Brain) = biological target: T2, CCK Receptor (Brain) (Cavia porcellus, UniProt H0VZC5); test: CCK Receptor Binding (Brain), inhibition of 125I-CCK-8 binding; parameters: species or system Male Hartley guinea pigs
T2 construct: the cortex was removed and homogenized in 25 mL ice-cold 0.32M sucrose; from tissue; host or cells: guinea pig cerebral cortex, P2 membrane pellet
T2 sequence (H0VZC5 1-426): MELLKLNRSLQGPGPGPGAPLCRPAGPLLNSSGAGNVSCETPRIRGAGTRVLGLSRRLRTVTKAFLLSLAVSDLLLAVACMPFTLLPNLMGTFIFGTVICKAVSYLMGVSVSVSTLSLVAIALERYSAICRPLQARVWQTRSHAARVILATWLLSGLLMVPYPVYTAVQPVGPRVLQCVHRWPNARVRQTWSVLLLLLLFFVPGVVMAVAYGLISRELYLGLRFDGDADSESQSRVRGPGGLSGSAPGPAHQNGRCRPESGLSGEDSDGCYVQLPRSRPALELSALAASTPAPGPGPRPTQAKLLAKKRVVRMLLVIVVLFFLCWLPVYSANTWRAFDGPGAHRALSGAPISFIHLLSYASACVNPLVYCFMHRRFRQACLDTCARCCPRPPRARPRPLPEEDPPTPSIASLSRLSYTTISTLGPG
Method: 2. CCK Receptor Binding (Brain)
CCK-8 sulphated was radiolabelled and the binding was performed according to the description for the pancreas method with minor modifications.
Male Hartley guinea pigs (300-500 g) were sacrificed by decapitation and the cortex was removed and homogenized in 25 mL ice-cold 0.32M sucrose. The homogenates were centrifuged at 1000 g for 10 minutes and the resulting supernatant was recentrifuged at 20,000 g for 20 minutes. […] All assays were run in duplicate. The reaction mixtures were incubated at 25° C. for 2 hours and then the reaction was terminated on Whatman GF/C filters by rapid filtration (Brandell 24 well cell Harvester) with 3×5 ml washes of cold 100 mM NaCl. The radioactivity on the filters was then counted with a LKB gamma counter.
as §1

[1] = rat pancreas membranes, 125I-CCK-8 50 pM, 25° C., 2 hours, read-out: IC50, 125I-CCK Pancreas
[2] = guinea pig cortex membranes, 125I-CCK-8 50 pM, 25° C., 2 hours, read-out: IC50, 125I-CCK Brain

Structure (SMILES)	IC50 (CCK Receptor (Pancreas); [1]) [nM]	IC50 (CCK Receptor (Brain); [2]) [nM]	IC50 (CCK Receptor (Pancreas)) [nM]	IC50 (CCK Receptor (Brain)) [nM]
CN1C(=O)[C@H](NC(=O)Nc2cccc(-c3noc(=O)[nH]3)c2)N=C(c2ccccc2)c2ccccc21 [Example 34, N-{1,3-Dihydro-1-methyl-2-oxo-5-phenyl-1H-1,4-benzodiazepin-3-yl}-N'-{[3-(1,2,4-oxadiazol-5-one)phenyl]urea}]	1100	0.19	–	–
CC(C)NC(=O)NC(=O)c1cccc(NC(=O)N[C@@H]2N=C(c3ccccc3)c3ccccc3N(C)C2=O)c1 [Example 26, N-{1,3-Dihydro-1-methyl-2-oxo-5-phenyl-1H-1,4-benzodiazepin-3-yl}-N'-{[3-(N-(2-propylaminocarbonyl)carboxamido)phenyl]urea}]	> 3000	410	–	–
CCN1C(=O)C(NC(=O)Nc2cccc(-c3nnn[nH]3)c2)N=C(c2ccccc2)c2ccccc21 (stereo not drawn) [Example 3, N-{1,3-Dihydro-1-ethyl-2-oxo-5-phenyl-1H-1,4-benzodiazepin-3-yl}-N'-{[3-(1H-tetrazol-5-yl)phenyl]urea}]	–	1.6	29	–
CN1C(=O)[C@H](NC(=O)Nc2cccc(C(=O)NS(=O)(=O)C(C)(C)C)c2)N=C(c2ccccc2)c2ccccc21 [Example 25, N-{1,3-Dihydro-1-methyl-2-oxo-5-phenyl-1H-1,4-benzodiazepin-3-yl}-N'-{[3-(N-(t-butylsulfonyl)carboxamido)phenyl]urea}]	> 3000	0.38	–	–
CN1C(=O)[C@H](NC(=O)Nc2cccc(-c3nnn(C)n3)c2)N=C(c2ccccc2)c2ccccc21 [Example 33, N-{1,3-Dihydro-1-methyl-2-oxo-5-phenyl-1H-1,4-benzodiazepin-3-yl}-N'-{[3-(2-methyltetrazol-5-yl)phenyl]urea}]	–	21	1600	–
CN1C(=O)[C@H](NC(=O)Nc2cccc(S(N)(=O)=O)c2)N=C(c2ccccc2)c2ccccc21 [Example 14, N-{1,3-Dihydro-1-methyl-2-oxo-5-phenyl-1H-1,4-benzodiazepin-3-yl}-N'-{[3-(aminosulfonyl)phenyl]urea}]	4400	74	–	–
CN1C(=O)[C@H](NC(=O)Nc2cccc(N)c2)N=C(c2ccccc2)c2ccccc21 [Example 9, N-{1,3-Dihydro-1-methyl-2-oxo-5-phenyl-1H-1,4-benzodiazepin-3-yl}-N'-{[3-(amino)phenyl]urea}]	> 3000	33	–	–
CN1C(=O)[C@H](NC(=O)Nc2cccc(Cc3nnn[nH]3)c2)N=C(c2ccccc2)c2ccccc21 [Example 17, N-{1,3-Dihydro-1-methyl-2-oxo-5-phenyl-1H-1,4-benzodiazepin-3-yl}-N'-{[3-((1H-tetrazol-5-yl)methyl)phenyl]urea}]	1800	4.8	–	–
CN1C(=O)[C@H](NC(=O)Nc2ccc3[nH]nnc3c2)N=C(c2ccccc2)c2ccccc21 [Example 13]	–	19	1500	–
CN1C(=O)[C@H](NC(=O)Nc2cccc(C(N)=O)c2)N=C(c2ccccc2)c2ccccc21 [Example 10, N-{1,3-Dihydro-1-methyl-2-oxo-5-phenyl-1H-1,4-benzodiazepin-3-yl}-N'-{[3-(aminocarbonyl)phenyl]urea}]	1360	28	–	–
CN1C(=O)[C@H](NC(=O)Nc2cccc(-c3n[nH]c(=O)o3)c2)N=C(c2ccccc2)c2ccccc21 [Example 37]	2460	3.62	–	–
CC(C)S(=O)(=O)NC(=O)c1cccc(NC(=O)N[C@@H]2N=C(c3ccccc3)c3ccccc3N(C)C2=O)c1 [Example 24, N-{1,3-Dihydro-1-methyl-2-oxo-5-phenyl-1H-1,4-benzodiazepin-3-yl}-N'-{[3-(N-(2-propylsulfonyl)carboxamido)phenyl]urea}]	2400	7.6	–	–
CN1C(=O)[C@H](NC(=O)Nc2cccc(S(=O)(=O)NP(=O)(Oc3ccccc3)Oc3ccccc3)c2)N=C(c2ccccc2)c2ccccc21 [Example 31, N-{1,3-Dihydro-1-methyl-2-oxo-5-phenyl-1H-1,4-benzodiazepin-3-yl}-N'-{[3-(N-(diphenylphosphono)sulfonamido)phenyl]urea}]	–	–	> 3000	15
CN1C(=O)[C@H](NC(=O)Nc2cccc(C#N)c2)N=C(c2ccccc2)c2ccccc21 [Example 7, N-{1,3-Dihydro-1-methyl-2-oxo-5-phenyl-1H-1,4-benzodiazepin-3-yl}-N'-{[3-(cyano)phenyl]urea}]	3100	27	–	–
CC(=O)NS(=O)(=O)c1cccc(NC(=O)N[C@@H]2N=C(c3ccccc3)c3ccccc3N(C)C2=O)c1 [Example 16, N-{1,3-Dihydro-1-methyl-2-oxo-5-phenyl-1H-1,4-benzodiazepin-3-yl}-N'-{[3-(acetylaminosulfonyl)phenyl]urea}]	> 3000	3.9	–	–
CC(=O)NS(=O)(=O)c1cccc(NC(=O)N[C@@H]2N=C(c3ccccc3)c3ccccc3N(CC3CC3)C2=O)c1 [Example 27, N-{1,3-Dihydro-1-cyclopropylmethyl-2-oxo-5-phenyl-1H-1,4-benzodiazepin-3-yl}-N'-{[3-(N-(acetyl)sulfonamido)phenyl]urea}]	4600	0.55	–	–
CN1C(=O)[C@H](NC(=O)Nc2cccc(S(=O)(=O)NC(=O)C(C)(C)C)c2)N=C(c2ccccc2)c2ccccc21 [Example 28, N-{1,3-Dihydro-1-methyl-2-oxo-5-phenyl-1H-1,4-benzodiazepin-3-yl}-N'-{[3-(N-(1,1-dimethylethylcarbonyl)sulfonamido)phenyl]urea}]	> 3000	12	–	–
O=C(Nc1cccc(-c2noc(=O)[nH]2)c1)N[C@@H]1N=C(c2ccccc2)c2ccccc2N(CC2CC2)C1=O [Example 35, N-{1,3-Dihydro-1-cyclopropylmethyl-2-oxo-5-phenyl-1H-1,4-benzodiazepin-3-yl}-N'-{[3-(1,2,4-oxadiazol-5-one)phenyl]urea}]	190	0.09	–	–
CN1C(=O)[C@H](NC(=O)Nc2cccc(/C=C/C(=O)O)c2)N=C(c2ccccc2)c2ccccc21 [Example 32, N-{1,3-Dihydro-1-methyl-2-oxo-5-phenyl-1H-1,4-benzodiazepin-3-yl}-N'-{[3-(trans-carboxyethylene)phenyl]urea}]	12	8.9	–	–
CN1C(=O)[C@H](NC(=O)Nc2cccc(B(O)O)c2)N=C(c2ccccc2)c2ccccc21 [Example 15, N-{1,3-Dihydro-1-methyl-2-oxo-5-phenyl-1H-1,4-benzodiazepin-3-yl}-N'-{[3-phenylboronyl]urea}]	420	9.6	–	–
O=C(Nc1cccc(-c2nnn[nH]2)c1)N[C@@H]1N=C(c2ccccc2)c2ccccc2N(CC2CC2)C1=O [Example 20, N-{1,3-Dihydro-1-cyclopropylmethyl-2-oxo-5-phenyl-1H-1,4-benzodiazepin-3-yl}-N'-{[3-(1H-tetrazol-5-yl)phenyl]urea}]	870000	0.4	–	–
